Laboratory results reported in PubChem BioAssay (NCI).
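Each compound was tested at five concentrations against cells in 96-well plates for 48 hours. TGI denotes the concentration required for complete inhibition of growth.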

Assays:
Assay in all cases: NCI-60 cell line screen, 48 h
786-0 renal = system: 786-0 renal
A498 renal = system: A498 renal
A549 NSCLC = system: A549 NSCLC
ACHN renal = system: ACHN renal
BT-549 breast = system: BT-549 breast
CAKI-1 renal = system: CAKI-1 renal
CCRF-CEM leukemia = system: CCRF-CEM leukemia
COLO 205 colon = system: COLO 205 colon
DU-145 prostate = system: DU-145 prostate
EKVX NSCLC = system: EKVX NSCLC
HCC-2998 colon = system: HCC-2998 colon
HCT-116 colon = system: HCT-116 colon
HCT-15 colon = system: HCT-15 colon
HL-60(TB) leukemia = system: HL-60(TB) leukemia
HOP-62 NSCLC = system: HOP-62 NSCLC
HOP-92 NSCLC = system: HOP-92 NSCLC
HS 578T breast = system: HS 578T breast
HT29 colon = system: HT29 colon
IGROV1 ovarian = system: IGROV1 ovarian
K-562 leukemia = system: K-562 leukemia
KM12 colon = system: KM12 colon
LOX IMVI melanoma = system: LOX IMVI melanoma
M14 melanoma = system: M14 melanoma
MALME-3M melanoma = system: MALME-3M melanoma
MCF7 breast = system: MCF7 breast
MDA-MB-231 breast = system: MDA-MB-231 breast
MDA-MB-435 = system: MDA-MB-435
MDA-N = system: MDA-N
MOLT-4 leukemia = system: MOLT-4 leukemia
NCI-H226 lung = system: NCI-H226 lung
NCI-H23 lung = system: NCI-H23 lung
NCI-H460 lung = system: NCI-H460 lung
NCI-H522 lung = system: NCI-H522 lung
NCI/ADR-RES ovarian = system: NCI/ADR-RES ovarian
OVCAR-3 ovarian = system: OVCAR-3 ovarian
OVCAR-4 ovarian = system: OVCAR-4 ovarian
OVCAR-5 ovarian = system: OVCAR-5 ovarian
OVCAR-8 ovarian = system: OVCAR-8 ovarian
PC-3 prostate = system: PC-3 prostate
RPMI-8226 leukemia = system: RPMI-8226 leukemia
RXF 393 renal = system: RXF 393 renal
SF-268 CNS = system: SF-268 CNS
SF-295 CNS = system: SF-295 CNS
SF-539 CNS = system: SF-539 CNS
SK-MEL-2 melanoma = system: SK-MEL-2 melanoma
SK-MEL-28 melanoma = system: SK-MEL-28 melanoma
SK-MEL-5 melanoma = system: SK-MEL-5 melanoma
SK-OV-3 ovarian = system: SK-OV-3 ovarian
SN12C renal = system: SN12C renal
SNB-19 CNS = system: SNB-19 CNS
SNB-75 CNS = system: SNB-75 CNS
SR leukemia = system: SR leukemia
SW-620 colon = system: SW-620 colon
T-47D breast = system: T-47D breast
TK-10 renal = system: TK-10 renal
U251 CNS = system: U251 CNS
UACC-257 melanoma = system: UACC-257 melanoma
UACC-62 melanoma = system: UACC-62 melanoma
UO-31 renal = system: UO-31 renal
DLD-1 colon = system: DLD-1 colon
DMS 114 small cell lung = system: DMS 114 small cell lung
DMS 273 small cell lung = system: DMS 273 small cell lung
KM20L2 colon = system: KM20L2 colon
LXFL 529 NSCLC = system: LXFL 529 NSCLC

NCCc1c[nH]c2ccc(OC(=O)C(=O)O)cc12
TGI (786-0 renal): > 100 µM
TGI (A498 renal): > 100 µM
TGI (A549 NSCLC): > 100 µM
TGI (ACHN renal): > 100 µM
TGI (BT-549 breast): > 100 µM
TGI (CAKI-1 renal): > 100 µM
TGI (CCRF-CEM leukemia): > 100 µM
TGI (COLO 205 colon): > 100 µM
TGI (DU-145 prostate): > 100 µM
TGI (EKVX NSCLC): > 100 µM
TGI (HCC-2998 colon): > 100 µM
TGI (HCT-116 colon): > 100 µM
TGI (HCT-15 colon): > 100 µM
TGI (HL-60(TB) leukemia): 23.2 µM
TGI (HOP-62 NSCLC): > 100 µM
TGI (HOP-92 NSCLC): > 100 µM
TGI (HS 578T breast): > 100 µM
TGI (HT29 colon): > 100 µM
TGI (IGROV1 ovarian): > 100 µM
TGI (K-562 leukemia): > 100 µM
TGI (KM12 colon): > 100 µM
TGI (LOX IMVI melanoma): > 100 µM
TGI (M14 melanoma): > 100 µM
TGI (MALME-3M melanoma): > 100 µM
TGI (MCF7 breast): > 100 µM
TGI (MDA-MB-231 breast): > 100 µM
TGI (MDA-MB-435): > 100 µM
TGI (MDA-N): > 100 µM
TGI (MOLT-4 leukemia): > 100 µM
TGI (NCI-H226 lung): > 100 µM
TGI (NCI-H23 lung): > 100 µM
TGI (NCI-H460 lung): > 100 µM
TGI (NCI-H522 lung): > 100 µM
TGI (NCI/ADR-RES ovarian): > 100 µM
TGI (OVCAR-3 ovarian): > 100 µM
TGI (OVCAR-4 ovarian): > 100 µM
TGI (OVCAR-5 ovarian): > 100 µM
TGI (OVCAR-8 ovarian): > 100 µM
TGI (PC-3 prostate): > 100 µM
TGI (RPMI-8226 leukemia): > 100 µM
TGI (RXF 393 renal): > 100 µM
TGI (SF-268 CNS): > 100 µM
TGI (SF-295 CNS): > 100 µM
TGI (SF-539 CNS): > 100 µM
TGI (SK-MEL-2 melanoma): > 100 µM
TGI (SK-MEL-28 melanoma): > 100 µM
TGI (SK-MEL-5 melanoma): > 100 µM
TGI (SK-OV-3 ovarian): > 100 µM
TGI (SN12C renal): > 100 µM
TGI (SNB-19 CNS): > 100 µM
TGI (SNB-75 CNS): > 100 µM
TGI (SR leukemia): > 100 µM
TGI (SW-620 colon): > 100 µM
TGI (T-47D breast): > 100 µM
TGI (TK-10 renal): > 100 µM
TGI (U251 CNS): > 100 µM
TGI (UACC-257 melanoma): > 100 µM
TGI (UACC-62 melanoma): > 100 µM
TGI (UO-31 renal): > 100 µM

CC(C)N(C(=O)C12C3C4C1C1C2C3C41C(=O)O)C(C)C (centres undefined)
TGI (786-0 renal): > 100 µM
TGI (A498 renal): > 100 µM
TGI (A549 NSCLC): > 100 µM
TGI (ACHN renal): > 100 µM
TGI (CAKI-1 renal): > 100 µM
TGI (CCRF-CEM leukemia): > 100 µM
TGI (COLO 205 colon): > 100 µM
TGI (DLD-1 colon): > 100 µM
TGI (DMS 114 small cell lung): > 100 µM
TGI (DMS 273 small cell lung): > 100 µM
TGI (EKVX NSCLC): > 100 µM
TGI (HCC-2998 colon): > 100 µM
TGI (HCT-116 colon): > 100 µM
TGI (HCT-15 colon): > 100 µM
TGI (HL-60(TB) leukemia): > 100 µM
TGI (HOP-62 NSCLC): > 100 µM
TGI (HT29 colon): > 100 µM
TGI (IGROV1 ovarian): > 100 µM
TGI (K-562 leukemia): > 100 µM
TGI (KM12 colon): > 100 µM
TGI (KM20L2 colon): > 100 µM
TGI (LOX IMVI melanoma): > 100 µM
TGI (LXFL 529 NSCLC): > 100 µM
TGI (M14 melanoma): > 100 µM
TGI (MALME-3M melanoma): > 100 µM
TGI (MOLT-4 leukemia): > 100 µM
TGI (NCI-H226 lung): > 100 µM
TGI (NCI-H23 lung): > 100 µM
TGI (NCI-H460 lung): > 100 µM
TGI (NCI-H522 lung): > 100 µM
TGI (OVCAR-3 ovarian): > 100 µM
TGI (OVCAR-4 ovarian): > 100 µM
TGI (OVCAR-5 ovarian): > 100 µM
TGI (OVCAR-8 ovarian): > 100 µM
TGI (RPMI-8226 leukemia): > 100 µM
TGI (SF-268 CNS): > 100 µM
TGI (SF-295 CNS): > 100 µM
TGI (SF-539 CNS): > 100 µM
TGI (SK-MEL-2 melanoma): > 100 µM
TGI (SK-MEL-28 melanoma): > 100 µM
TGI (SK-MEL-5 melanoma): > 100 µM
TGI (SK-OV-3 ovarian): > 100 µM
TGI (SN12C renal): > 100 µM
TGI (SNB-19 CNS): > 100 µM
TGI (SNB-75 CNS): > 100 µM
TGI (SW-620 colon): > 100 µM
TGI (TK-10 renal): > 100 µM
TGI (UACC-257 melanoma): > 100 µM
TGI (UACC-62 melanoma): > 100 µM
TGI (UO-31 renal): > 100 µM
